Key:
[1] = Improvement of acne by IAA and light, half-face, count of inflammatory lesions; type: in vivo
From the text: IAA was applied to only half of face and 20 J of IPL was irradiated. The face was irradiated 3 times at 2 weeks intervals and the number of inflammatory lesions was counted.

P. acnes 706486 = test: Bacteriocidal effect of IAA with or without IPL irradiation on P. acnes, colony count; type: cell-based, Propionibacterium acnes
Description: (§1) P. acnes 706486 and S. aureus W-1-14 was used for this experiment. Mueller Hinton II broth (Becton, Dickinson Co., Sparks, U.S.A) was used for culture of bacteria. The cultured S. aureus colony was dissolved with phosphate buffered saline (PBS, Invitrogen Co., NY, U.S.A) such that the McFarland turbidity became 0.5. The resultant bacterial solution was at the concentration of […]. Then, the bacterial solution was further diluted to the concentration of 1×10^8/ml and 10 μl of the bacterial solution was spread onto the Mueller Hinton II agar (Becton, Dickinson Co., Sparks, U.S.A) plate followed by drying in clean bench for 30 min. IAA was dissolved with Dulbecco's phosphate buffered saline (DPBS, Invitrogen Co., NY, U.S.A) to obtain samples of IAA concentration of 20 mM, 10 mM, 5 mM, 1 mM and 0.5 mM. Three minutes after adding 4 ml of 0 mM, 0.5 mM, 1 mM, 5 mM, 10 mM, and 20 mM IAA solution to 6 bacterial solution inoculated mediums respectively, Intermittent Pulse Laser (IPL, Ellipse Flex DDD, Denmark) was irradiated to the mediums. 10 J/cm^2 of the IPL of wavelength of 400 nm to 720 nm was irradiated to the mediums, using an applicator equipped with a filter. One minute after IPL irradiation, the mediums were washed for two times with PBS and incubated at 37° C. for 24 hrs and then the number of colonies was counted respectively. Four minutes after adding 4 ml of 0 mM, 0.5 mM, 1 mM, 5 mM, 10 mM, and 20 mM IAA solution to another 6 bacterial solution inoculated mediums, the mediums were treated as the above-mentioned process except that IPL was not irradiated, and then the number of colonies was counted respectively. The above-mentioned process was repeated except that P. acnes inoculated mediums were employed in place of S. aureus inoculated mediums and cultured in an anaerobic chamber substituted with nitrogen, and then the number of colonies was counted.

S. aureus W-1-14 = test: Bacteriocidal effect of IAA with or without IPL irradiation on S. aureus, colony count; type: cell-based, Staphylococcus aureus
Description: as §1

[2] = Sebum secretion inhibition by IAA and IPL, half-face; type: in vivo
Description: As described in Example 2, IAA was applied to only half of face and 20 J of IPL was irradiated. The face was irradiated 3 times at 2 weeks intervals and the amount of sebum secretion was measured.

[3] = IAA with IPL, irradiated 3 times at 2 weeks intervals

O=C(O)Cc1c[nH]c2ccccc12 [IAA, Indole-3-acetic acid]
Number of inflammatory lesion (mean ± SD), T1 ([1]; IAA + IPL 20 J, after 2 weeks, n = 14, baseline T0 16.21 ± 9.18): 15.50 ± 9.03 | Number of inflammatory lesion (mean ± SD), T2 ([1]; IAA + IPL 20 J, after 4 weeks, n = 14, baseline T0 16.21 ± 9.18): 13.93 ± 8.54 | Number of inflammatory lesion (mean ± SD), T3 ([1]; IAA + IPL 20 J, after 6 weeks, n = 14, baseline T0 16.21 ± 9.18): 13.93 ± 8.30 | Change in number of inflammatory lesion T1-T0 (mean ± SD) ([1]; IAA + IPL, 2 weeks versus baseline, p 0.246): −0.71 ± 2.20 | Change in number of inflammatory lesion T2-T0 (mean ± SD) ([1]; IAA + IPL, 4 weeks versus baseline, p 0.024): −2.29 ± 3.36 | Change in number of inflammatory lesion T3-T0 (mean ± SD) ([1]; IAA + IPL, 6 weeks versus baseline, p 0.026): −2.29 ± 3.41 | improvement of acne (number of inflammatory lesions) [1, 3]: significant improvement | number of colonies (P. acnes 706486; 5 mM or more IAA solution, IPL not irradiated): 68 % of control group | growth of bacteria (P. acnes 706486; 20 mM IAA solution, with IPL irradiation): no growth of bacteria | inhibitory effects on P. acnes proliferation (P. acnes 706486; IAA with IPL irradiation, 10 J/cm^2, 400 nm to 720 nm): dramatic inhibitory effects | number of colonies (S. aureus W-1-14; 20 mM IAA solution, without IPL irradiation): 60 % of control group | number of colonies (S. aureus W-1-14; IPL irradiation and 0.5 mM IAA solution): 63 % of control group | number of colonies (S. aureus W-1-14; IPL irradiation and 1 mM IAA solution): 32 % of control group | sebum secretion (mean ± SD), T1 ([2]; IAA + IPL 20 J, after 2 weeks, n = 14, baseline T0 99.64 ± 56.93): 114.71 ± 63.83 | sebum secretion (mean ± SD), T2 ([2]; IAA + IPL 20 J, after 4 weeks, n = 14, baseline T0 99.64 ± 56.93): 70.43 ± 42.80 | sebum secretion (mean ± SD), T3 ([2]; IAA + IPL 20 J, after 6 weeks, n = 14, baseline T0 99.64 ± 56.93): 65.79 ± 27.90 | Change of sebum secretion T1-T0 (mean ± SD) ([2]; IAA + IPL, 2 weeks versus baseline, p 0.433): 15.07 ± 69.70 | Change of sebum secretion T2-T0 (mean ± SD) ([2]; IAA + IPL, 4 weeks versus baseline, p 0.032): −29.21 ± 45.67 | Change of sebum secretion T3-T0 (mean ± SD) ([2]; IAA + IPL, 6 weeks versus baseline, p 0.015): −33.86 ± 44.98 | inhibitory effect of sebum secretion [2, 3]: significant inhibitory effect of sebum secretion
